Results published in patent US20090221708A1, “Medicinal preparation” (priority 2004, published 2009).

What was measured:
hepatitis C = assay: Example 12: patient N., hepatitis C, hepatargy and ascites, symptoms and blood counts; type: in vivo, human; settings: after 2 weeks (250 mg twice a day)
[1] = molecular target: T1, Transthyretin (protein) of the blood plasma (Homo sapiens, UniProt P02766); assay: Example 3: Transthyretin of the blood plasma in test tube; type: biochemical
T1 construct: Transthyretin (protein) of the blood plasma; from tissue; host or cells: blood plasma
Method: Into a test tube (10 ml) with Transthyretin (protein) of the blood plasma (pH=7.0) in a concentration of 0.05 mmol/ml, four drops of 0.1% MCPA aqueous solution were introduced. The test tube was thermostatically controlled at a temperature of 37° C. After 15 minutes, the concentration of Transthyretin and the pH value of the blood plasma were measured. Transthyretin was not found, and the pH value was 6.0.

[2] = tested on: adenocarcinoma of the prostate gland; assay: Example 9: patient K., adenocarcinoma of the prostate gland, ultrasound, PSA and blood counts; type: in vivo, human; parameters: prostate had become smaller by (ultrasound): dose or concentration left out as unconfirmed
Method: An ultrasound test on 8 Aug. […] A PSA test on 8 Aug.
The patient declined an operation and chemotherapy. The patient was treated with the drug. On 9 Aug. […] The treatment lasted 10 days.

melanoma-16 = assay: Example 8: mice inoculated with melanoma-16; type: in vivo; settings: for surviving mice in which no blastomas were ascertained / surviving mice with blastomas of approximately 0.3×0.2 mm: 36th day, 5 mg as a drink; for mice with isolated pulmonal metastases at dissection: surviving mice killed on the 36th day
[3] = tested on: cancer cells PC-3 (prostate carcinoma); assay: Example 1: mitochondrial membranes of cancer cells PC-3 in test tubes; type: cell-based; settings: PC-3, dilution 10^−5 mmol/l, 24 hours at 37° C.
Method: After thermostatically controlling the aforementioned test tubes in the course of 24 hours at a temperature of 37° C., the contents were analyzed.

[4] = molecular target: T2, β-amyloid (protein) of the blood plasma (Homo sapiens, UniProt P05067); assay: Example 4: β-amyloid of the blood plasma in test tube; type: biochemical
T2 construct: Into a test tube with β-amyloid (protein) of the blood plasma (pH=7.4); from tissue; host or cells: blood plasma
T2 sequence (P05067 672-711 limits assumed): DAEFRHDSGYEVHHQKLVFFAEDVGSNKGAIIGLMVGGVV
Method: Into a test tube with β-amyloid (protein) of the blood plasma (pH=7.4) with a concentration of 0.1 mmol/ml, three drops of 0.1% sodium salt aqueous solution (called O.F.1) are introduced. The test tube was thermostatically controlled at a temperature of 37° C. After 15 minutes, the protein concentration and the pH value of the blood plasma were measured. The protein concentration amounted to 0.03 mmol/ml, and the pH value amounted to 7.2.

[5] = tested on: filtrate formed from melanoma 16; assay: Example 6: filtrate from melanoma 16 in the polarisation microscope; settings: filtrate with the preparation; without it the light polarization is slight
Method: A filtrate formed from melanoma 16 (10 ml) was accommodated in a quartz vessel and detected in the polarisation microscope. Thereafter, sodium salt (O.F.1) was introduced into the filtrate, and a repeat detection was carried out in the polarisation microscope.

[6] = tested on: plasma of the blood of a sarcoma patient; assay: Example 5: plasma of a sarcoma patient in the polarisation microscope; settings: plasma with aqueous solution of the salt; dried plasma without it: light diffusion
Method: The blood of a sarcoma patient (10 ml) was centrifuged. A proportion of plasma was dried and detected in the polarisation microscope. Into the remaining proportion of plasma, an aqueous solution of lithium salt of MCPA acid was introduced, and the mixture was also detected in the polarization microscope.

## Cc1cc(Cl)ccc1OCC(=O)O [4-chlorine-2-methyl phenoxyacetic acid]
Hepatitis C; before treatment 2.0
  Albumin: 4.7 g/dL
Hepatitis C; before treatment 2.9
  Bilirubin: 1.7 mg/dL
Hepatitis C; before treatment 73.0
  Aspart aminotransferasis: 51.0 units/l
Hepatitis C; before treatment 77.0
  Alanine aminotransferasis: 71.4 units/l
Hepatitis C; before treatment 129.0
  Gammaglutamyl transferasis: 82.0 units/l
Hepatitis C; before treatment 543.5
  Lactate dehydrogenasis: 335.0 units/l
[1]; after 15 minutes at 37° C., initial pH=7.0
  pH value of the blood plasma: 6.0
[1]; four drops of 0.1% aqueous solution, 37° C., after 15 minutes, initial 0.05 mmol/ml
  concentration of Transthyretin: not found
[2]; 10 days of treatment
  pains during urination: became less
[2]; 10 days, before approximately 90 cm^3
  prostate had become smaller by (ultrasound): 30%
melanoma-16
  surviving mice in which no blastomas were ascertained: 3 mice
  surviving mice with blastomas of approximately 0.3×0.2 mm: 3 mice
  mice with isolated pulmonal metastases at dissection: 2 mice
melanoma-16; single dose of 5 mg as a drink
  mice died on the 23rd day: 2 mice

## COc1cccc2c1C(=O)c1c(O)c3c(c(O)c1C2=O)C[C@@](O)(C(=O)CO)C[C@@H]3O[C@H]1C[C@H](N)[C@H](O)[C@H](C)O1 [Adriamycin, reference compound]
[3]
  mitochondrial membranes of cancer cells (appearance): membrane swelling
melanoma-16; single dose of 5 mg as a drink
  mice alive on the 36th day of the test: 2 mice

## Cc1cc(Cl)ccc1OCC(=O)[O-].[Na+] [O.F.1]
[4]; after 15 minutes at 37° C., initial pH=7.4
  pH value of the blood plasma: 7.2
[4]; three drops of 0.1% aqueous solution, 37° C., after 15 minutes, initial 0.1 mmol/ml
  protein (β-amyloid) concentration: 0.03 mmol/mL
[5]
  observation in the polarisation microscope: pronounced polarization
melanoma-16
  surviving mice in which no blastomas were ascertained: one
  surviving mice with blastomas of approximately 0.3×0.2 mm: 8 mice
  mice with isolated pulmonal metastases at dissection: 4 mice
melanoma-16; single dose of 5 mg as a drink
  mice died on the 23rd day: one
  mice died on the 26th day: one
  mice died on the 30th day: 1 mice

## Cc1cc(Cl)ccc1OCC(=O)[O-].[Li+] [lithium salt of MCPA acid]
[6]
  observation in the polarisation microscope: double refraction of rays
